{"source": "patent US8575197B2", "about": "“Pyrolinone derivative and pharmaceutical composition comprising the same” (Shionogi & Co., Ltd., priority 2008, dated 2013)", "note": "pIC50: −log10 of the molar value."}
{"target": "human P2X3 receptor (Homo sapiens (Human), UniProt P56373)", "sequence (P56373 whole entry)": "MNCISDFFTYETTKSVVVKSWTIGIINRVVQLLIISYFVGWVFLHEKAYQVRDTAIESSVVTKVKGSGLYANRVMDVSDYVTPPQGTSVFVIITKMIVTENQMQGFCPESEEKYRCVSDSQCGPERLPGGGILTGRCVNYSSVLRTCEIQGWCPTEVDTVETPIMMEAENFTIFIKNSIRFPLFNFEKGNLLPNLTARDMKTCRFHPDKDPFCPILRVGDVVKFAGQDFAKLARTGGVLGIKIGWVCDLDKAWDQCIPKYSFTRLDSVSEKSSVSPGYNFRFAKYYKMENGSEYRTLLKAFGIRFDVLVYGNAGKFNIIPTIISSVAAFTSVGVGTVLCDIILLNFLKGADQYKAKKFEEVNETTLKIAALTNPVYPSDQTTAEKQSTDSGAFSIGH", "assay": "P2X3 receptor inhibition, ATP-evoked Fluo-3 calcium fluorescence (FDSS 3000)", "assay_type": "cell-based", "settings": "C6BU-1 cell transfected with human P2X3 receptor gene; ATP-evoked Fluo-3 fluorescence", "outline": "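C6BU-1 cells stably transfected with human P2X3, loaded with 4 μM Fluo-3-AM for 1 h at 37 °C in HEPES buffer pH 7.5 with probenecid. Compound added 5 min before 40 nM ATP solution; fluorescence followed 3 min. IC50 from ratio of peak post-ATP to baseline fluorescence.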"}
{"smiles": "COc1ncccc1C1c2c(C(C)(C)C)n[nH]c2C(=O)N1c1ccc(-c2ccco2)cn1", "note": "(stereo not shown) [II-263]", "pIC50": 6.97}
{"smiles": "COc1ccccc1C1c2c(C(C)(C)CO)n[nH]c2C(=O)N1c1ccc(-c2cccs2)cn1", "note": "(stereo not shown) [II-264]", "pIC50": 7.96}
{"smiles": "COc1ccccc1C1c2c(C(C)(C)CO)n[nH]c2C(=O)N1c1ccc(-c2ccco2)cn1", "note": "(stereo not shown) [II-265]", "pIC50": 7.51}
{"smiles": "COc1ccccc1C1c2c(C(C)(CO)CO)n[nH]c2C(=O)N1c1ccc(-c2ccsc2)cc1", "note": "(stereo not shown) [II-266]", "pIC50": 8.15}
{"smiles": "COc1ncccc1C1c2c(C(C)(C)C)n[nH]c2C(=O)N1c1ccc(-c2ccsc2)nc1", "note": "(stereo not shown) [II-268]", "pIC50": 7.62}
{"smiles": "COc1ncccc1C1c2c(C(C)(C)C)n[nH]c2C(=O)N1c1ccc(-c2ccoc2)nc1", "note": "(stereo not shown) [II-269]", "pIC50": 6.44}
{"smiles": "COc1ncccc1C1c2c(C(C)(C)C)n[nH]c2C(=O)N1c1ccc(-c2cccs2)nc1", "note": "(stereo not shown) [II-270]", "pIC50": 7.60}
{"smiles": "COc1ncccc1C1c2c(C(C)(C)C)n[nH]c2C(=O)N1c1ccc(-c2ccco2)nc1", "note": "(stereo not shown) [II-271]", "pIC50": 6.82}
{"smiles": "COc1ccccc1C1c2c(C(C)(C)C)n[nH]c2C(=O)N1c1ccc(-c2ccsc2Cl)cc1", "note": "(stereo not shown) [II-272]", "pIC50": 6.41}
{"smiles": "COc1ccccc1C1c2c(C(C)(C)C)n[nH]c2C(=O)N1c1ccc(-c2csc(C)c2)cc1", "note": "(stereo not shown) [II-274]", "pIC50": 7.72}
{"smiles": "COc1ccccc1C1c2c(C(C)(C)C)n[nH]c2C(=O)N1c1ccc(-c2ccc(C)s2)cc1", "note": "(stereo not shown) [II-275]", "pIC50": 7.57}
{"smiles": "COCCOCc1ncccc1C1c2c(C(C)(C)C)n[nH]c2C(=O)N1c1ccc(-c2ccsc2)cc1", "note": "(stereo not shown) [II-277]", "pIC50": 6.56}
{"smiles": "COCCOc1ncccc1C1c2c(C(C)C)n[nH]c2C(=O)N1c1ccc(-c2ccsc2)cc1", "note": "(stereo not shown) [II-278]", "pIC50": 7.89}
{"smiles": "COCCOc1ncccc1C1c2c(C(C)C)n[nH]c2C(=O)N1c1ccc(-c2ccon2)cc1", "note": "(stereo not shown) [II-279]", "pIC50": 6.42}
{"smiles": "COCCOc1ncccc1C1c2c(C(C)C)n[nH]c2C(=O)N1c1ccc(-c2noc(C)n2)cc1", "note": "(stereo not shown) [II-280]", "pIC50": 6.61}
{"smiles": "COCCOc1ncccc1C1c2c(n[nH]c2C(C)C)C(=O)N1c1ccc(-c2nc(C)no2)cc1", "note": "(stereo not shown) [II-281]", "pIC50": 6.18}
